This passage reports GI50 and TGI results from PubChem BioAssay (NCI).

For orientation: GI50 means the concentration that inhibits growth by half. By TGI is commonly meant the concentration at which net growth stops.

Test systems include UACC-257 melanoma; 786-0 renal; RXF 393 renal; M14 melanoma; OVCAR-8 ovarian; COLO 205 colon; SK-MEL-2 melanoma; SN12C renal; HS 578T breast; DU-145 prostate.
Holding throughout (assay): DTP human tumour cell line panel, 48 h

“And” between values parts separate entries of the source, which are not always exact repeats. Identical values can stand only once.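 Five compound concentrations were applied to cells in 96-well plates for 48 hours; endpoints were derived by simple linear interpolation of the resulting dose-response curve. At the GI50, growth is halved. TGI is the concentration that stops growth completely.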 A value given as a limit tells only on which side of the number the result lay.

For the molecule `CCC(=O)Sc1ccccc1C(=O)Nc1ccc(Cl)cc1`, the GI50 with UACC-257 melanoma is 31.7 µM; with 786-0 renal it was 15 µM; with RXF 393 renal, 28.7 µM; with M14 melanoma it was 6.42 µM; in the test with OVCAR-8 ovarian it was 17.4 µM; in the test on COLO 205 colon, 13.6 µM. For the same molecule, the GI50 was 25.7 µM with SK-MEL-2 melanoma, 4.26 µM in the test with SN12C renal, 15.9 µM in the test with HS 578T breast and 22.1 µM with DU-145 prostate. Further, the concentration for total growth inhibition (TGI) with UACC-257 melanoma was more than 100 µM; in the test on 786-0 renal, 41.8 µM; with RXF 393 renal, more than 100 µM; with M14 melanoma it was 43.9 µM; in the test with OVCAR-8 ovarian, more than 100 µM; in the test on COLO 205 colon, 32.1 µM. Also, the TGI with SK-MEL-2 melanoma is more than 100 µM; with SN12C renal, 41.8 µM; in the test with HS 578T breast it was 66.4 µM; in the test on DU-145 prostate it was 74.3 µM.

`Cc1nc2sc(C(=O)Nc3cccc4ccccc34)c(N)c2cc1C(C)O` (stereo not given): the GI50 in the test with UACC-257 melanoma is more than 50 µM; with 786-0 renal, 0.227 µM; in the test with RXF 393 renal, 0.151 µM; with M14 melanoma, 0.176 µM; in the test with OVCAR-8 ovarian, 0.368 µM; with COLO 205 colon, 0.234 µM. Further, the GI50 in the test with SK-MEL-2 melanoma was 0.219 µM; in the test on SN12C renal, 0.425 µM; in the test on HS 578T breast it was 0.121 µM; in the test on DU-145 prostate, 0.247 µM. The TGI in the test with UACC-257 melanoma was more than 50 µM; in the test on 786-0 renal, more than 50 µM; in the test with RXF 393 renal it was more than 50 µM; with M14 melanoma it was more than 50 µM; with OVCAR-8 ovarian, more than 50 µM; with COLO 205 colon it was 7.64 µM. The concentration for total growth inhibition (TGI) with SK-MEL-2 melanoma, in the test with SN12C renal, with HS 578T breast and in the test on DU-145 prostate was more than 50 µM each time.

Take `Cn1cc(-c2cc3c(Nc4ccc(CC(=O)Nc5cc(C(C)(C)C)on5)cc4)ncnc3[nH]2)cn1`: the GI50 in the test on UACC-257 melanoma was 2.04 µM; in the test with 786-0 renal, 0.995 µM and 0.536 µM; in the test on RXF 393 renal, 0.723 µM and 0.461 µM; in the test with M14 melanoma, 0.961 µM and 0.69 µM; with OVCAR-8 ovarian it was 0.893 µM and 0.49 µM; in the test on COLO 205 colon, 0.364 µM and 0.354 µM. In addition, the GI50 in the test with SK-MEL-2 melanoma is 0.835 µM and 0.943 µM; in the test with SN12C renal, 0.671 µM and 0.471 µM; with HS 578T breast, 0.42 µM and 0.276 µM; in the test with DU-145 prostate, 0.83 µM and 0.491 µM. Moreover, the TGI with UACC-257 melanoma is 6.96 µM and 6.99 µM; in the test on 786-0 renal, 5.05 µM and 4.71 µM; in the test on RXF 393 renal, 1.88 µM and 1.48 µM; in the test with M14 melanoma, 3.02 µM and 2.3 µM; in the test on OVCAR-8 ovarian, 5.06 µM and 4.54 µM; in the test on COLO 205 colon, 1.21 µM and 1.65 µM. Besides, the TGI in the test with SK-MEL-2 melanoma is 2.8 µM and 3.73 µM; in the test with SN12C renal it was 4.05 µM and 4.15 µM; in the test with HS 578T breast, 1.72 µM and 1.56 µM; in the test on DU-145 prostate it was 3.84 µM and 2.89 µM.

As to `Cn1ncc2cc(-c3cnc(N)c(Cl)c3N3CCC4(CCNC4=O)CC3)ccc21`, the GI50 in the test with UACC-257 melanoma was 31.2 µM; in the test on 786-0 renal, 11.2 µM; in the test with RXF 393 renal, 8.11 µM; with M14 melanoma, 41.4 µM; with OVCAR-8 ovarian, 39.1 µM; with COLO 205 colon, 11.9 µM. Moreover, the GI50 in the test on SK-MEL-2 melanoma was 39.8 µM; with SN12C renal, 32.7 µM; with HS 578T breast, 19.8 µM; in the test with DU-145 prostate it was 52.1 µM. Besides, the TGI in the test with UACC-257 melanoma is 66.1 µM; with 786-0 renal, more than 100 µM; in the test on RXF 393 renal, 54.3 µM; in the test on M14 melanoma it was more than 100 µM; in the test on OVCAR-8 ovarian, more than 100 µM; in the test on COLO 205 colon, more than 100 µM. The TGI was more than 100 µM with SK-MEL-2 melanoma, more than 100 µM in the test with SN12C renal, 89.5 µM with HS 578T breast and more than 100 µM in the test with DU-145 prostate.

With `COc1ccc(C(CC(=O)c2ccccc2)C(C(=O)c2ccccc2)C(c2ccc(OC)cc2)C2C(=O)NC(=O)NC2=O)cc1` (stereo not given), the GI50 with UACC-257 melanoma was 14.1 µM; in the test on 786-0 renal, 27.8 µM; in the test on RXF 393 renal, 22.6 µM; in the test on M14 melanoma, 19.8 µM; in the test on OVCAR-8 ovarian it was 24.7 µM; in the test with COLO 205 colon, 3.43 µM. For the same molecule, the GI50 is 38.5 µM with SK-MEL-2 melanoma, 24.2 µM with SN12C renal, 25.9 µM in the test on HS 578T breast and 19.2 µM in the test on DU-145 prostate. In addition, the TGI with UACC-257 melanoma is 69.3 µM; with 786-0 renal it was more than 100 µM; in the test on RXF 393 renal, more than 100 µM; in the test with M14 melanoma, 60.8 µM; with OVCAR-8 ovarian it was 68.7 µM; with COLO 205 colon, 19.1 µM. For the same molecule, the total growth inhibition concentration (TGI) with SK-MEL-2 melanoma was more than 100 µM; in the test on SN12C renal, more than 100 µM; in the test with HS 578T breast, more than 100 µM; in the test with DU-145 prostate it was 70.5 µM.

Consider `OCC1SC(n2cnc3cncnc32)C(O)C1O` (stereo not given), for which the GI50 in the test on UACC-257 melanoma is more than 100 µM; with 786-0 renal, more than 100 µM; in the test with RXF 393 renal, more than 100 µM; with M14 melanoma it was more than 100 µM; in the test with OVCAR-8 ovarian it was 85.2 µM; in the test on COLO 205 colon, more than 100 µM. The GI50 in the test with SK-MEL-2 melanoma, with SN12C renal, with HS 578T breast and in the test on DU-145 prostate was more than 100 µM each time. In addition, the TGI in the test with UACC-257 melanoma, in the test with 786-0 renal, in the test on RXF 393 renal, in the test with M14 melanoma, in the test on OVCAR-8 ovarian and with COLO 205 colon was more than 100 µM throughout. Besides, the total growth inhibition concentration (TGI) in the test on SK-MEL-2 melanoma, with SN12C renal, in the test with HS 578T breast and in the test on DU-145 prostate was more than 100 µM in each case.

With `O=S(=O)(Nc1ccc(-c2nc(-c3cccc(OCCN4CCOCC4)c3)c(-c3ccnc(Br)c3)[nH]2)cc1)c1ccccc1`, the GI50 in the test with UACC-257 melanoma was 3.03 µM; with 786-0 renal it was 2.37 µM; in the test with RXF 393 renal it was 2.26 µM; in the test on M14 melanoma, 2.09 µM; with OVCAR-8 ovarian it was 3.27 µM; in the test on COLO 205 colon, 3.54 µM. Moreover, the GI50 is 2.59 µM in the test with SK-MEL-2 melanoma, 5.37 µM in the test with SN12C renal, 1.47 µM in the test on HS 578T breast and 5.64 µM in the test on DU-145 prostate. Besides, the TGI with UACC-257 melanoma is 12 µM; in the test with 786-0 renal, 7.96 µM; in the test on RXF 393 renal, 6.78 µM; in the test on M14 melanoma, 5.55 µM; in the test with OVCAR-8 ovarian, more than 100 µM; in the test on COLO 205 colon, more than 100 µM. The TGI is 6.87 µM in the test with SK-MEL-2 melanoma, more than 100 µM in the test with SN12C renal, 4.37 µM in the test on HS 578T breast and more than 100 µM with DU-145 prostate.
